According to patent US20120083472A1, “PHARMACEUTICAL COMPOSITION FOR PROMOTING THE HEALING OF WOUNDS AND CONTAINING LYSOPHOSPHATIDIC ACID AND AN ADENYLYL CYCLASE INHIBITOR AS ACTIVE INGREDIENTS” (SNU R&DB FOUNDATION, priority 2009, published 2012):

Assays:
[1] = tested on: cAMP level in young and senescent fibroblasts; assay: Measurement of cyclic AMP (cAMP) by competitive binding assay; format: cell-based, human
Experimental: Sub-cultured young (PD 20) and senescent (PD 65) fibroblasts were treated with various concentrations of ACI for 1 hr. The level of cAMP in the acid extracts was measured by using a cAMP binding assay. The results shown represent the means±standard deviation of a representative experiment.
(§1) Human umbilical vein endothelial cells (HUVEC) were isolated from endothelial cells of umbilical cords as described by Whang et al (Whang et al., 2005). Foreskin human fibroblasts and keratinocytes were isolated from newborn foreskins as described by Boyce and Ham (Boyce and Ham, 1983). Patient consents were obtained from all donors and the use of tissue samples was approved by the ethics committee of the Seoul National University. The obtained and isolated fibroblasts and HUVEC were maintained in DMEM containing 10% fetal bovine serum (FBS) and antibiotics, and keratinotyes were in keratinocyte growth medium (KGM) containing antibiotics. Cells from the early stage of culture were cultured to obtain aged cells, which were used in experiments (population doubling -PD- of less than 25 vs PD 65-70 in fibroblasts, PD less than 5 vs PD 10-12 in case of HUVEC). Senescent cells were characterized by morphological changes, enhanced […]β-galactosidase activity and a reduced rate of proliferation (Yeo et al., 2000). Cells were grown for 2 days to 60-70% sub-confluency in the culture medium after treatment with LPA or ACI, and then serum-starved to quiescence by incubating them with either serum free DMEM containing 0.1% BSA (fibroblasts or HUVEC) or KBM (keratinocytes) for 2 days.
After removing the medium, 2.5 M of perchloric acid was added into the plate. The obtained acid extract was stored at […] until use, when the extract was neutralized with 4.2 M KOH and the cAMP content was determined by competitive binding with [^3H]-cAMP to the cAMP binding protein, RIα[…] of cAMP-dependent protein kinase (Jang and Juhnn, 2001). After the extraction, cells were lysed with 0.1 N NaOH and protein content was determined using Bradford protein assay reagent. The cAMP content was normalized versus the amount of acid-insoluble protein (expressed as the content of cAMP per protein concentration).

[2] = tested on: skin wounds of young and aged Fisher 344 rats; assay: Skin wound healing in young and aged rats (photographs, H & E, PCNA staining); format: in vivo, rat; conditions: for epithelialization (H & E) of aged wounded rats: day 4, compared to control untreated groups; for PCNA staining in aged rats: wound sections, versus very weak staining in control aged rats; for number of PCNA positive cells / wound healing rate (photographs of wounds): young and aged rats; for number of PCNA positive cells: wound sections (FIG. 9B, 9C); for wound healing rate (photographs of wounds): LPA 30 μM, ACI 300 μM, 200 μl topical once per two days, 4th day (FIG. 7)
Experimental: Rats were anesthetized with intraperitoneal injection of ketamine and xylazine. The back was shaved (A) and four full-thickness circular skin wounds of 1.0 cm diameter were cut (B). A teflon wound chamber was glued into the edge of the skin and then sewn using a […] (C).
Young and old rats were anesthetized and wounded as described in the legend of FIG. 1. 200 μl aliquots of the solutions containing LPA (30 μM), ACI (300 μM), and the mixture of LPA and ACI dissolved in physiological saline were applied onto wound sites using a sterile glass filter in each wound chamber once per two days. After 4 days, the wounds were photographed.
Young and old rats were anesthetized and wounded as described in the legend of FIG. 1. The wounds were treated with LPA (30 μM), ACI (300 μM), or the mixture of LPA and ACI as described in the legend of FIG. 1c. On postoperative days 4, animals were anesthetized and killed as described in “Materials and Methods”. Approximately 5-mm-thick section across the dorsoventral diameter of the wound was cut and fixed and embedded in paraffin. Serial sections were cut and processed for hematoxylin-eosin (H & E) staining. H & E stained epithelial layer was visualized on the top of each section.
Young and aged rats were anesthetized and wounded as described in the legend of FIG. 1. The wounds were treated with LPA (30 μM), ACI (300 μM), or the mixture of LPA and ACI as described in the legend of FIG. 1c. On postoperative days 2, 4, and 7, animals were anesthetized and killed as described in “Materials and Methods”. An about 5-mm-thick section across the dorsoventral diameter of the wound was cut and fixed and embedded in paraffin. Serial sections were cut and processed for immunohistochemistry using PCNA as described in “Materials and Methods”. The presence of PCNA was visualized by using avidin-biotin peroxidase complex method and the control was counterstained with hematoxylin. The photographs from postoperative days 4 are shown in A. The number of PCNA positive cell was counted from each photograph and plotted in B (young rats) and C (aged rats).
Rats aged 6 months and 24 months which were used in experiments were purchased from Samtaco BioKorea (Seoul, Korea) and housed two per cage in a room with controlled temperature and humidity with a 12:12-h light-dark cycle. They were maintained on a standard diet with food and water ad libitum in an animal facility accredited by the Korean Association for Accreditation of Laboratory Animal Care. Animals were divided into treatment groups, each consisting of nine, and used in experiments.
Rats were anesthetized with intraperitoneal injection of ketamine and xylazine (87/13 mg/kg). Skin wounding and its protection was performed as described by Balazs (Balazs et al., 2001). By the dermabrasion technique using diamond bar, four second-degreed partial thickness circular wounds of 1.0 cm. A teflon wound chamber with a 1.2 cm inner diameter centered around the wound was glued into the edge of the skin with Histoacryl and then sewn using a surgical nylon suture (Ethicon 4-0) (FIG. 1C). In order to protect wound site, upon treatment with LPA or ACI, they were sprayed using a sterile filter (GF-C Whatman), followed by treatment. This work was carried out by a single plastic surgeon for consistency and exactness of experiments. 30 μM of LPA, 300 μM of ACI, and the mixture of LPA (30 μM) and ACI (300 μM) are dissolved in physiological saline to be a 200-μl aliquot, respectively. The 200-μl aliquot, corresponding to 30 pmol/mm^2, was applied […] into the wound of the animals anesthetized with inhalation. The contralateral side received 200 μl of saline as a control. […]
Serial sections (4 […]μm thick) were cut and processed for hematoxylin-eosin (H & E) and immunohistological staining. Paraffin sections on the microslides were deparaffinized in xylene and rehydrated sequentially in alcohol. […]

[3] = tested on: young and senescent fibroblasts, HUVEC, skin keratinocytes; assay: DNA synthesis ([3H]-thymidine incorporation); format: cell-based, human; conditions: for basal and LPA-stimulated DNA synthesis in senescent cells: 1 mM dbcAMP or 300 μM ACI 2 hrs, then 30 μM LPA (FIG. 4A)
Experimental: as §1, with “Sub-cultured young (PD 25) and senescent (PD 73) cells (A), skin fibroblasts from young and elderly donors (B), HUVEC (C) and skin keratinocytes (D) were serum-starved for 2 days and treated with 1 mM of dibutyryl-cAMP (dbcAMP), or 300 […]μM of ACI (SQ22536) for 2 hrs. Cells were then treated with 30 μM of LPA in the presence of 0.5 μCi/ml of [^3H]-radioactive isotope. The radioactivity incorporated into the DNA was counted and fold increase of radioactive isotope incorporation was calculated and plotted. The results shown represent the means±standard deviation of a representative experiment. Human” for “Human”, “days. […] Radioactivity in the neutralized lysates was counted in a liquid scintillation cocktail. The measured radioactivity as such was compared to that of control to find the synthesis degree of […].” for “days.”

[4] = tested on: young and senescent fibroblasts (HDFs); assay: In vitro wound healing assay (cell migration into acellular area); format: cell-based, human; conditions: for migration of senescent cells / migration of young cells: serum-starved; for migration of senescent cells: LPA 30 μM, ACI 300 μM, 72 hrs (FIGS. 6B, 6D); for migration of young cells: LPA 30 μM or ACI 300 μM, up to 72 hrs (FIGS. 6A, 6C)
Experimental: Sub-cultured young (A, C) and senescent cells (B, D) were serum-starved for 2 days and treated with ACI or dbcAMP (1 mM) for 2 hr at 37° C. An area was denuded by a yellow tip and the cells were then treated with LPA (30 μM) and incubated at 37° C. Photographs were taken at 6 hrs, 12 hrs, 18 hrs, 24 hrs, 30 hrs, 36 hrs, 42 hrs, 60 hrs, and 72 hrs, and the number of cells migrated into the acellular area was counted and the average values were plotted in A and B. The data at 72 hrs were replotted in a bar graph to show the significant changes induced by treating cells with either LPA or ACI, or both (C and D). The results shown represent the means±standard deviation of a representative experiment. Cell migration from each group (p<0.001) was compared to the control value the migration was read as having a significance.
LPA-induced cell migration was assessed by the ability of the cells to move into an acellular area (Shiraha et al., 2000). Cells were plated on a 10-cm plastic dish and grown to 70-80% confluence in the culture media with 10% FBS. After a 2-day quiescence in serum free media with 0.1% BSA, cells were pretreated with vehicle, ACI (300 μM), or dbcAMP (1 mM) for 2 hrs at 37° C. An area was denuded by a tip and the cells were then incubated at 37° C. without or with LPA (30 μM). Photographs were taken at 6 hrs, 12 hrs, 18 hrs, 24 hrs, 30 hrs, 36 hrs, 42 hrs, 60 hrs, and 72 hrs, and the number of cells migrating to the acellular area was counted.

[5] = tested on: young and senescent fibroblasts, HUVEC, skin keratinocytes; assay: Cell growth / proliferation (cell number count); format: cell-based, human; conditions: for cell number in senescent cells of various cell types: senescent fibroblasts, old donor fibroblasts, HUVEC, keratinocytes, degree depends on cell type (FIG. 5)
Experimental: Sub-cultured young (PD 25, A) and senescent (PD 73, B) fibroblasts were serum-starved for 2 days and treated with LPA, 1 mM of dbcAMP (+dbcAMP), or 300 μM of ACI SQ22536 (+ACI) for 4 days. The number of cells was counted. The results shown represent the means±standard deviation of a representative experiment.
Sub-cultured young (PD 25) and senescent (PD 73) cells (A), fibroblasts from young and elderly donors (B), HUVEC (C) and skin keratinocytes (D) were serum-starved for 2 days and treated with LPA, and then treated with 1 mM of dibutyryl-cAMP, or 300 μM of ACI (SQ22536) for 4 days. The number of cells was counted. The results shown represent the means±standard deviation of a representative experiment.
as §1

Nc1ncnc2c1ncn2C1CCCO1 (stereo not shown) [ACI, 9-(tetrahydro-2′-furyl)adenine]
cAMP levels at 300 μM ([1]; 300 μM ACI, both young and senescent cells (FIG. 2)): complete abrogation | concentration of cAMP in aged cells upon treatment with ACI ([1]; aged fibroblasts, ACI): again lowered | cAMP levels ([1]; various concentrations of ACI, 1 hr, young (PD 20) and senescent (PD 65) fibroblasts (FIG. 2)): dose-dependently reduced cAMP levels | epithelialization (H & E) of aged wounded rats [2]: higher | PCNA staining in aged rats [2]: increased significantly | number of PCNA positive cells [2]: increased significantly | wound healing rate (photographs of wounds) [2]: faster than the untreated controls | basal and LPA-stimulated DNA synthesis in senescent cells [3]: increased | thymidine incorporation, basal and LPA-stimulation conditions ([3]; young and aged fibroblasts, HUVEC and keratinocytes, 300 μM ACI (FIG. 4)): enhanced the thymidine incorporation | migration of senescent cells [4]: increase in cell migration | migration of young cells [4]: unaltered | proliferation of aged cells compared to treatment with LPA ([5]; aged fibroblasts): more increased | cell number in senescent cells following ACI treatment ([5]; senescent fibroblasts (PD 73), 300 μM ACI, 4 days, unlike young cells (FIG. 3B)): significant increase in the cell number | cell number in senescent cells of various cell types ([5]; 4 days): further enhanced

CCCC(=O)Nc1ncnc2c1ncn2[C@@H]1O[C@@H]2COP(=O)(O)O[C@H]2[C@H]1OC(=O)CCC [dbcAMP, dibutyryl cAMP]
basal and LPA-stimulated DNA synthesis in senescent cells [3]: decreased | LPA-induced cell migration ([4]; dbcAMP 1 mM with LPA 30 μM): reduced | basal cell migration ([4]; young and senescent cells, 1 mM dbcAMP): did not significantly affect | LPA-induced proliferation ([5]; both young and senescent cells, 1 mM dbcAMP after LPA, 4 days (FIG. 3)): decreased

lysophosphatidic acid [LPA]
concentration of cAMP in aged cells ([1]; aged fibroblasts, treatment with LPA): increased | concentration of cAMP in young cells ([1]; young fibroblasts, treatment with LPA): lowered | epithelialization (H & E) of aged wounded rats [2]: higher | PCNA staining in aged rats [2]: increased significantly | number of PCNA positive cells [2]: increased significantly | wound healing rate (photographs of wounds) [2]: faster than the untreated controls | migration of senescent cells [4]: increased senescent cell migration at 72 hrs significantly | migration of young cells [4]: migration of cells is increased | cell number (proliferation) ([5]; LPA 1-70 μM, 4 days, young and senescent fibroblasts (FIG. 3)): induces proliferation of both young and senescent cells in a dose-dependent manner | cell number in senescent cells of various cell types ([5]; 4 days): further enhanced
